Results as given in PubChem BioAssay (NCI).
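Cultured in 96-well plates, cells were exposed to test compound for 48 hours across five concentrations. The concentration for 50% growth inhibition is given as GI50. TGI marks complete inhibition of growth.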

What was measured:
Assay in all cases: inhibition of tumour cell growth, NCI panel, 48 h
HT29 colon = tested on: HT29 colon
TK-10 renal = tested on: TK-10 renal
SNB-75 CNS = tested on: SNB-75 CNS
OVCAR-5 ovarian = tested on: OVCAR-5 ovarian
DU-145 prostate = tested on: DU-145 prostate
A498 renal = tested on: A498 renal
SK-MEL-28 melanoma = tested on: SK-MEL-28 melanoma
NCI/ADR-RES ovarian = tested on: NCI/ADR-RES ovarian
786-0 renal = tested on: 786-0 renal
MDA-MB-435 = tested on: MDA-MB-435

SMILES | TGI (HT29 colon) | TGI (TK-10 renal) | TGI (SNB-75 CNS) | TGI (OVCAR-5 ovarian) | TGI (DU-145 prostate) | TGI (A498 renal) | TGI (SK-MEL-28 melanoma) | TGI (NCI/ADR-RES ovarian) | TGI (786-0 renal) | TGI (MDA-MB-435) | GI50 (HT29 colon) | GI50 (SNB-75 CNS) | GI50 (OVCAR-5 ovarian) | GI50 (DU-145 prostate) | GI50 (A498 renal) | GI50 (SK-MEL-28 melanoma) | GI50 (MDA-MB-435)
Cc1ccc(S(=O)(=O)N(CCNC(=O)c2cccc(O)c2O)c2cc3c4c(c2)Oc2cccc5c2C4(C)c2c(cccc2O3)O5)cc1 | > 100 µM | > 100 µM | > 100 µM | > 100 µM | > 100 µM | > 100 µM | > 100 µM | 58 µM | > 100 µM | > 100 µM | – | – | – | – | – | – | –
COC(=O)c1ccccc1C1CN=NC12Cc1ccc3c(c1C2=O)CCC3 (configuration not stated) | > 100 µM | > 100 µM | > 100 µM | > 100 µM | > 100 µM | > 100 µM | > 100 µM | > 100 µM | > 100 µM | > 100 µM | – | – | – | – | – | – | –
COc1ccc2c(c1)/c(=C/C#N)c1c3ccccc3[n+](C)n21 | 10.6 µM | 20.7 µM | 9.21 µM | 42.8 µM | 8.59 µM | 13.9 µM | 14.3 µM | > 100 µM | > 70.1 µM | 19.3 µM | – | – | – | – | – | – | –
COc1ccc(-c2oc3cc(O)c(OC)c(O)c3c(=O)c2O)cc1 | > 100 µM | > 100 µM | 63.2 µM | > 70.1 µM | > 24.9 µM | 22.3 µM | > 100 µM | 48.5 µM | 33.1 µM | > 100 µM | – | – | – | – | – | – | –
COc1ccc([I+]c2ccc(OC)cc2)cc1 | > 100 µM | > 100 µM | > 100 µM | > 100 µM | > 100 µM | > 100 µM | > 100 µM | > 100 µM | > 100 µM | > 100 µM | 5.54 µM | 14.9 µM | > 60.8 µM | 60.4 µM | 5.52 µM | 20.6 µM | 14.7 µM
COC(=O)c1c2c(cc3c1CC1(Cc4ccccc4C1)C3)CCC2 | 34 µM | > 100 µM | > 100 µM | > 100 µM | > 100 µM | > 100 µM | > 100 µM | 96.1 µM | > 100 µM | 39.1 µM | – | – | – | – | – | – | –
CCC(Nc1ncnc2nc[nH]c12)C(=O)O (configuration not stated) | > 100 µM | > 100 µM | > 100 µM | > 100 µM | > 100 µM | > 100 µM | > 100 µM | > 100 µM | > 100 µM | > 100 µM | – | – | – | – | – | – | –
COc1ccc2[nH]c3c(c2c1)CC(=O)N1CCC[C@H](C1)CC31OCCCO1 | > 100 µM | > 100 µM | > 100 µM | > 100 µM | > 100 µM | > 100 µM | > 100 µM | > 100 µM | > 100 µM | > 100 µM | – | – | – | – | – | – | –
O=C1c2cccnc2-c2nccc3c2c1nc1ccccc13 | 2.5 µM | 2.84 µM | 1.76 µM | 1.65 µM | 0.962 µM | 1.03 µM | 1.47 µM | 0.673 µM | 2.21 µM | 0.444 µM | – | – | – | – | – | – | –
O=c1/c(=C/c2ccccn2)sc2nc3cc4c(cc3n12)OCCO4 | > 100 µM | > 100 µM | > 100 µM | > 100 µM | > 100 µM | > 100 µM | > 100 µM | > 100 µM | > 100 µM | > 100 µM | – | – | – | – | – | – | –
Cc1[nH]c2nccn2c(=O)c1CCO | > 10 µM | > 10 µM | > 10 µM | > 10 µM | > 10 µM | > 10 µM | > 10 µM | > 10 µM | > 10 µM | > 10 µM | – | – | – | – | – | – | –
CSc1ccc2c(c1)c(CCN)c(C)n2Cc1ccccc1Cl | 3.09 µM | 3.15 µM | 3.04 µM | 3.78 µM | 3.04 µM | 3.1 µM | 3.22 µM | 4.77 µM | 3.42 µM | 3.08 µM | – | – | – | – | – | – | –
CCOC(=O)NN(C(=O)OCC)C(C(=O)c1ccccc1)N(NC(=O)OCC)C(=O)OCC | > 100 µM | > 100 µM | > 100 µM | > 100 µM | > 100 µM | > 100 µM | > 100 µM | > 100 µM | > 100 µM | > 100 µM | – | – | – | – | – | – | –
CCOC(=O)N1CCC2(CC1)C[C@@](C(C)=O)(c1ccccc1)C(C)O2 (some centres not stated) | > 100 µM | > 100 µM | > 100 µM | > 100 µM | > 100 µM | > 100 µM | > 100 µM | > 100 µM | > 100 µM | > 100 µM | – | – | – | – | – | – | –
CN(C)S(=O)(=O)c1nc(Cl)c2[nH]cnc2n1 | > 100 µM | > 100 µM | > 100 µM | > 100 µM | > 100 µM | > 100 µM | > 100 µM | > 100 µM | > 100 µM | > 100 µM | – | – | – | – | – | – | –
CCOC(=O)c1cc(C)nc2c1c(=O)n(-c1ccccc1)c(=O)n2CCCCN1CCN(c2ncccn2)CC1 | > 100 µM | > 100 µM | > 100 µM | > 100 µM | > 100 µM | > 100 µM | > 100 µM | > 100 µM | > 100 µM | > 100 µM | – | – | – | – | – | – | –
Cc1ccnc(Nc2[nH]c(C(=O)c3ccc(Cl)cc3)c(N)c2C(=S)Nc2ccccc2)c1 | 28.6 µM | 69.2 µM | 39.7 µM | 55.3 µM | 63.7 µM | 36.9 µM | 35.9 µM | 11.1 µM | 34.8 µM | 35.3 µM | – | – | – | – | – | – | –
